Test results as given in patent US9339486B2, “Heterocyclic modulators of cannabinoid receptors” (THE CLEVELAND CLINIC FOUNDATION, priority 2008, dated 2016).
Entries after “also recorded” stand apart in the source; their conditions may differ.

Experiments:
[1] = tested on: spinal nerve ligation neuropathic pain model; assay: Tactile allodynia in SNL neuropathic pain model (von Frey); format: in vivo, rat
Method: Adult, male Sprague Dawley (Harlan Sprague Dawley, Indianapolis, Ind.) rats weighing 120-150 gm were used in experimental procedures approved by the Animal Care and Use Committee of the M. D. Anderson Cancer Center, University of Texas. Animals were housed three per cage on a 12/12 hr light/dark cycle with water and food pellets available ad libitum.
All surgical procedures were performed under deep isoflurane anesthesia in 100% 02. The spinal nerve ligation (SNL) was performed as described previously. Kim, S. H., et al., An Experimental Model for Peripheral Neuropathy Produced by Segmental Spinal Nerve Ligation in the Rat, Pain, 1992, 50:355-63. Briefly, a midline incision above the lumbar spine exposed the left L6 transverse process. The process was then removed, the left L5 and L6 spinal nerves were isolated, and both nerves were tightly ligated with 6-0 silk. Prophylactic antibiotic (norfloxacin 5 mg/kg subcutaneously) and analgesic (buprenorphine, 0.2-0.5 mg/kg, or morphine, 2.5 mg/kg, given subcutaneously) were administered once daily for 3 days. All the experiments were conducted 10-14 days after spinal nerve ligation.
Rats were placed in a compartment with a wire mesh bottom and allowed to acclimate for a minimum of 30 min before testing. Mechanical sensitivity was assessed using a series of Von Frey filaments with logarithmic incremental stiffness (0.41, 0.70, 1.20, 2.00, 3.63, 5.50, 8.50, and 15.1 g) (Stoelting, Wood Dale, Ill.) as previously described, and 50% probability withdrawal thresholds were calculated with the up-down method. Chaplan, S. R., et al., Quantitative Assessment of Tactile Allodynia in the Rat Paw, J. Neurosci. Methods, 1994, 53:55-63; Dixon, W., The Up-and-Down Method for Small Samples, J. Am. Stat. Assoc., 1965, 60:967-78. In brief, beginning with the 2.0-g probe, filaments were applied to the plantar surface of a hind paw for 6-8 s, in an ascending or descending order after a negative or positive withdrawal response, respectively. Six consecutive responses from the first change in the response were used to calculate the withdrawal threshold (in grams). In cases where response thresholds fell outside the range of detection, 15.00 and 0.25 g were, respectively, assigned for continuous negative or positive responses to the limit of stimuli. The percent maximal possible effect (% MPE) was calculated as ([postdrug threshold−baseline threshold]/[cutoff threshold (15 g)−baseline threshold])×100.
Statistical analyses were carried out using BMDP 2007 (Statistical Solutions, Saugus, Mass., USA) and Graph Pad Prism (version 4.03; Graph Pad Software Inc., San Diego, Calif., USA). Data were analyzed using one-way ANOVA, repeated measures ANOVA, or t-test where appropriate. If ANOVA was significant, Tukey-Kramer post hoc analysis was used for multiple group comparison. Area under the curve (AUC) was calculated using the trapezoidal rule. The results are presented as mean±s.e. mean and were considered significant at P<0.05. Analyses of the dose-response curves and statistics were obtained using the pharmacologic software programs of Tallarida and Murray and included calculation of the ED50 values and their 95% confidence intervals (CI). Tallarida, R. J., et al., Manual of Pharmacologic Calculations With Computer Programs, Second ed. New York: Springer-Verlag, 1987.

[2] = tested on: paclitaxel-induced neuropathy; assay: Prevention of neuropathy induced by paclitaxel; format: in vivo, rat
Method: A mixture of saline and CREMOPHOR® ELP 10% was used as vehicle for paclitaxel. It was injected at a concentration of 1.0 mg/kg intraperitoneally to the chemotherapy-treated group of rats on 4 consecutive days for a final cumulative dose of 4 mg/kg to 18 rats.
Paw withdrawal thresholds were determined daily in both hind paws of each animal using calibrated von Frey monofilaments according to an up-down procedure. A series of von Frey filaments with exponentially incremental degrees of stiffness (0.4, 0.7, 1.2, 2.0, 3.6, 5.5, 8.5, and 15.1 g) was used to measure the 50% threshold for both hindpaw withdrawal in awake, unrestrained rats. Chaplan, S. R., Quantitative assessment of tactile allodynia in the rat paw, Journal of Neuroscience Methods, 1994, 53:55-63. Brisk paw withdrawal from the pressure of a filament gently bent against the plantar surface of the paw was defined as a positive response, and absence of withdrawal within 6 sec was considered a negative response. The series of filaments touched the hindpaw in sequential ascending or descending order of stiffness until the threshold of response was crossed (allowing about 10 sec between each increment). Each time the threshold was crossed, the direction of stimulus presentation was reversed and the procedure resumed. Four responses were collected after the first threshold detection, and the 50% withdrawal thresholds was interpolated. In cases in which the response thresholds fall outside the range of detection, 15.1 and 0.25 g were assigned for continuous negative or positive responses, respectively, to the limits of stimulation. FIG. 17 and FIG. 18 show results from these experiments and that peripheral neuropathy started to develop within a few days. FIG. 18 reflects that a plateau was reached by the 10th day.
Group 1 of rats received paclitaxel for four days, as described immediately above in subpart (A) titled “Paclitaxel-induced Neuropathy.” In group 2, a dose of 15 mg/kg of the compound of Example 3, injected intraperitoneally was administered 30 minutes prior to the administration of paclitaxel. In group 3, vehicle of the compound of Example 3 was administered 30 min prior to the administration of paclitaxel. Paw withdrawal thresholds were determined daily in both hind paws of each animal using calibrated von Frey monofilaments according to an up-down procedure as described immediately above in subpart (A) titled “Paclitaxel-induced Neuropathy.” The results are shown in FIG. 17.
FIGS. 19A and 19B show results from an experiment in which three groups of rats were administered 0.25 mL of the compound of Example 3 or the vehicle, a mixture of NMP, propylene glycol, chromophore ELP (25%, 25%, 10%) in sterile water 30 min prior to the administration of paclitaxel. Two of the three experimental groups continued to receive either the vehicle or the compound of Example 3 daily for 11 more days.

For `CC1(Cc2ccccc2)COc2cc(C(=O)N3CCCCC3)ccc21` (stereo not shown) [Example 3, 3-benzyl-3-methyl-2,3-dihydrobenzofuran-6-carboxylic acid-piperidine amide], the “antiallodynic effect compared with 15 mg/kg AM1241 i.p.” value ([1]; 10 mg/kg i.p.) was “significantly (P<0.001) greater”, the ED50 ([1]; Rattus norvegicus, ip, 0.5 h, i.p., at 30 min, SNL model, read-out: ED50 anti-allodynic effect (tactile allodynia)) was 7.48 mg/kg and the “effect of AM251 pretreatment (5 mg/kg i.p.) on antiallodynic effects of the compound” value ([1]; compound 10 mg/kg i.p., AM251 15 min prior) was “did not affect the antiallodynic effects; also recorded: had no effect”. The “effect of AM630 pretreatment (5 mg/kg i.p.) on antiallodynic effects of the compound” value ([1]; compound 10 mg/kg i.p., AM630 15 min prior) was “antagonized the effects; also recorded: reversed the antiallodynic effects; also recorded: significantly reversed”, the “effect of naloxone pretreatment (10 mg/kg i.p.) on antiallodynic activity” value ([1]; compound of Example 3 10 mg/kg i.p., naloxone 15 min prior) was “did not affect the antiallodynic effects; also recorded: had no effect” and the “effect on tactile allodynia” value ([1]; i.p. 5, 10, 15 mg/kg) was “attenuated tactile allodynia in a dose-related manner”. The “development of paclitaxel-evoked mechano-allodynia” value ([2]; 15 mg/kg for 4 days only) was “did not prevent but significantly prevented the severity”, the “prevention of paclitaxel-induced neuropathy, share of rats” value ([2]; administered for 14 days (4 days concomitant with paclitaxel and further 10 days)) was 100% and the “prevention of paclitaxel-induced neuropathy” value ([2]; administered for four days only) was “short-lived prevention”. The “development of paclitaxel-evoked mechano-allodynia” value ([2]; continued 15 mg/kg IP daily) was “completely prevented”.
